Assay results published in patent US20070287699A1, “ANTIVIRAL AGENTS” (ViroBay, Inc., priority 2006, published 2007).

Each molecule was assayed on HCV replicon RNA replication in human Huh7 hepatoma cells (assay: HCV replicon assay (activity levels from either or both of HCV replicon assay 1, Huh7/Clone A RT-qPCR, and assay 2, Huh7 ET luc-ubi-neo/ET)). Details: Hepatitis C virus, Huh-7, either or both HCV replicon assays: Huh7/Clone A, 48 hours, 72 hours, Luc activity or RT-PCR, read-out: inhibit HCV replication at IC50 levels or estimated IC50 levels.
Assay type: cell-based, Hepatitis C virus (HCV)
Procedure, shortened: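 Huh7/Clone A subgenomic replicon cells treated 48 h at 37° C. with 7 serial dilutions in triplicate (0.5% DMSO final). Replicon RNA measured by TaqMan RT-qPCR on the neo gene, normalized to RiboGreen total RNA; untreated cells set as 100% for IC50.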

Row | SMILES | IC50
1 | CN1CCN(c2cc3c(cc2F)c(=O)c(-c2noc(Cc4ccccn4)n2)cn3Cc2ccc(Cl)cc2)CC1 [Compound 61, 1-(4-chloro-benzyl)-6-fluoro-7-(4-methyl-piperazin-1-yl)-3-(5-pyridin-2-ylmethyl-[1,2,4]oxadiazol-3-yl)-1H-quinolin-4-one] | > 10 µM
2 | CN1CCN(c2cc3c(cc2F)c(=O)c(-c2noc(Cc4cccnc4)n2)cn3Cc2ccc(Cl)cc2)CC1 [Compound 62, 1-(4-chloro-benzyl)-6-fluoro-7-(4-methyl-piperazin-1-yl)-3-(5-pyridin-3-ylmethyl-[1,2,4]oxadiazol-3-yl)-1H-quinolin-4-one] | > 10 µM
3 | CN1CCN(c2cc3c(cc2F)c(=O)c(-c2noc(C(CCCC#N)c4ccccc4)n2)cn3Cc2ccc(Cl)cc2)CC1 (stereo not shown) [Compound 63, 5-{3-[1-(4-chloro-benzyl)-6-fluoro-7-(4-methyl-piperazin-1-yl)-4-oxo-1,4-dihydro-quinolin-3-yl]-[1,2,4]oxadiazol-5-yl}-5-phenyl-pentanenitrile] | < 2 µM
4 | CN1CCN(c2cc3c(cc2F)c(=O)c(-c2noc(Cc4ccc(F)cc4)n2)cn3Cc2ccc(Cl)nc2)CC1 [Compound 64, 1-(6-chloro-pyridin-3-ylmethyl)-6-fluoro-3-[5-(4-fluoro-benzyl)-[1,2,4]oxadiazol-3-yl]-7-(4-methyl-piperazin-1-yl)-1H-quinolin-4-one] | < 10 µM
5 | CN1CCN(c2cc3c(cc2F)c(=O)c(-c2noc(Cc4ccccc4)n2)cn3Cc2ccc(Cl)nc2)CC1 [Compound 65, 3-(5-benzyl-[1,2,4]oxadiazol-3-yl)-1-(6-chloro-pyridin-3-ylmethyl)-6-fluoro-7-(4-methyl-piperazin-1-yl)-1H-quinolin-4-one] | < 10 µM
6 | COC(=O)CNc1cc2c(cc1F)c(=O)c(-c1noc(Cc3ccccc3)n1)cn2Cc1ccc(C(F)(F)F)cc1F [Compound 66, methyl[3-(5-benzyl-[1,2,4]oxadiazol-3-yl)-6-fluoro-1-(2-fluoro-4-trifluoromethyl-benzyl)-4-oxo-1,4-dihydro-quinolin-7-ylamino]-acetate] | > 10 µM
7 | CN1CCN(c2cc3c(cc2F)c(=O)c(-c2noc(C(CCC(N)=O)c4ccccc4)n2)cn3Cc2ccc(Cl)cc2)CC1 (stereo not shown) [Compound 67, 4-{3-[1-(4-chloro-benzyl)-6-fluoro-7-(4-methyl-piperazin-1-yl)-4-oxo-1,4-dihydro-quinolin-3-yl]-[1,2,4]oxadiazol-5-yl}-4-phenyl-butyramide] | < 10 µM
8 | COc1ccc2c(=O)c(-c3noc(Cc4ccccc4)n3)cn(Cc3ccc(C(F)(F)F)cc3)c2c1 [Compound 68, 3-(5-benzyl-oxadiazol-3-yl)-7-methoxy-1-(4-trifluoromethyl-benzyl)-1H-quinolin-4-one] | > 10 µM
9 | NC(=O)CNc1cc2c(cc1F)c(=O)c(-c1noc(Cc3ccccc3)n1)cn2Cc1ccc(C(F)(F)F)cc1F [Compound 69, 2-[3-(5-benzyl-[1,2,4]oxadiazol-3-yl)-6-fluoro-1-(2-fluoro-4-trifluoromethyl-benzyl)-4-oxo-1,4-dihydro-quinolin-7-ylamino]-acetamide] | < 10 µM
10 | O=c1c(-c2noc(Cc3ccccc3)n2)cn(Cc2ccc(C(F)(F)F)cc2)c2cc(N3CCNCC3)c(F)cc12 [Compound 70, 3-(5-benzyl-[1,2,4]oxadiazol-3-yl)-6-fluoro-7-piperazin-1-yl-1-(4-trifluoromethyl-benzyl)-1H-quinolin-4-one] | < 0.5 µM
11 | O=c1c(-c2noc(Cc3ccccc3)n2)cn(Cc2ccc(C(F)(F)F)cc2)c2cc(N3CCCNCC3)c(F)cc12 [Compound 71, 3-(5-benzyl-[1,2,4]oxadiazol-3-yl)-7-[1,4]diazepam-1-yl-6-fluoro-1-(4-trifluoromethyl-benzyl)-1H-quinolin-4-one] | < 0.5 µM
12 | O=c1c(-c2noc(Cc3ccccc3)n2)cn(Cc2ccc(C(F)(F)F)cc2)c2cc(NCCN3CCOCC3)c(F)cc12 [Compound 72, 3-(5-benzyl-[1,2,4]oxadiazol-3-yl)-6-fluoro-7-(2-morpholin-4-yl-ethylamino)-1-(4-trifluoromethyl-benzyl)-1H-quinolin-4-one] | < 2 µM
13 | O=c1c(-c2noc(Cc3ccccc3)n2)cn(Cc2ccc(C(F)(F)F)cc2)c2cc(NCCOCCO)c(F)cc12 [Compound 73, 3-(5-benzyl-[1,2,4]oxadiazol-3-yl)-6-fluoro-7-[2-(2-hydroxy-ethoxy)-ethylamino]-1-(4-trifluoromethyl-benzyl)-1H-quinolin-4-one] | < 10 µM
14 | CN(C)c1cc2c(cc1F)c(=O)c(-c1noc(Cc3ccccc3)n1)cn2Cc1ccc(C(F)(F)F)cc1 [Compound 74, 3-(5-benzyl-[1,2,4]oxadiazol-3-yl)-7-dimethylamino-6-fluoro-1-(4-trifluoromethyl-benzyl)-1H-quinolin-4-one] | < 2 µM
15 | NCCNc1cc2c(cc1F)c(=O)c(-c1noc(Cc3ccccc3)n1)cn2Cc1ccc(C(F)(F)F)cc1 [Compound 75, 7-(2-amino-ethylamino)-3-(5-benzyl-[1,2,4]oxadiazol-3-yl)-6-fluoro-1-(4-trifluoromethyl-benzyl)-1H-quinolin-4-one] | > 10 µM
16 | O=C(O)Cc1ccc2c(c1)c(=O)c(-c1noc(Cc3ccccc3)n1)cn2Cc1ccc(C(F)(F)F)cc1F [Compound 76, [3-(5-benzyl-[1,2,4]oxadiazol-3-yl)-1-(2-fluoro-4-trifluoromethyl-benzyl)-4-oxo-1,4-dihydro-quinolin-6-yl]-acetic acid] | > 10 µM
17 | CN1CCN(c2cc3c(cc2F)c(=O)c(-c2noc(C(C)(C)c4ccccc4)n2)cn3Cc2ccc(C(F)(F)F)cc2F)CC1 [Compound 77, 6-fluoro-1-(2-fluoro-4-trifluoromethyl-benzyl)-3-[5-(1-methyl-1-phenyl-ethyl)-[1,2,4]oxadiazol-3-yl]-7-(4-methyl-piperazin-1-yl)-1H-quinolin-4-one] | < 0.5 µM
18 | CN1CCN(c2cc3c(cc2F)c(=O)c(-c2noc(C4(c5ccccc5)CC4)n2)cn3Cc2ccc(C(F)(F)F)cc2F)CC1 [Compound 78, 6-fluoro-1-(2-fluoro-4-trifluoromethyl-benzyl)-7-(4-methyl-piperazin-1-yl)-3-[5-(1-phenyl-cyclopropyl)-[1,2,4]oxadiazol-3-yl]-1H-quinolin-4-one] | < 2 µM
19 | CN1CCN(c2cc3c(cc2F)c(=O)c(-c2noc(Cc4ccccc4)n2)cn3CCc2ccccc2)CC1 [Compound 79, 3-(5-benzyl-[1,2,4]oxadiazol-3-yl)-6-fluoro-7-(4-methyl-piperazin-1-yl)-1-phenethyl-1H-quinolin-4-one] | > 10 µM
20 | CN1CCN(c2cc3c(cc2F)c(=O)c(-c2noc(C(CCCC(N)=O)c4ccccc4)n2)cn3Cc2ccc(Cl)cc2)CC1 (stereo not shown) [Compound 80, 5-{3-[1-(4-chloro-benzyl)-6-fluoro-7-(4-methyl-piperazin-1-yl)-4-oxo-1,4-dihydro-quinolin-3-yl]-[1,2,4]oxadiazol-5-yl}-5-phenyl-pentanamide] | < 2 µM
21 | CN1CCN(c2cc3c(cc2F)c(=O)c(-c2noc(C(CCCC(=O)O)c4ccccc4)n2)cn3Cc2ccc(Cl)cc2)CC1 (stereo not shown) [Compound 81, 5-{3-[1-(4-chloro-benzyl)-6-fluoro-7-(4-methyl-piperazin-1-yl)-4-oxo-1,4-dihydro-quinolin-3-yl]-[1,2,4]oxadiazol-5-yl}-5-phenyl-pentanoic acid] | < 10 µM
22 | CN1CCN(c2cc3c(cc2F)c(=O)c(-c2noc(C(CCCCN)c4ccccc4)n2)cn3Cc2ccc(Cl)cc2)CC1 (stereo not shown) [Compound 82, 3-[5-(5-amino-1-phenyl-pentyl)-[1,2,4]oxadiazol-3-yl]-1-(4-chloro-benzyl)-6-fluoro-7-(4-methyl-piperazin-1-yl)-1H-quinolin-4-one] | < 10 µM
23 | O=c1c(-c2noc(Cc3ccccc3)n2)cn(Cc2ccc(C(F)(F)F)cc2)c2cc(N(CCO)CCO)c(F)cc12 [Compound 83, 3-(5-benzyl-[1,2,4]oxadiazol-3-yl)-7-[bis-(2-hydroxy-ethyl)-amino]-6-fluoro-1-(4-trifluoromethyl-benzyl)-1H-quinolin-4-one] | < 10 µM
24 | O=c1c(-c2noc(Cc3ccccc3)n2)cn(Cc2ccc(C(F)(F)F)cc2)c2cc(-n3ccnc3)c(F)cc12 [Compound 84, 3-(5-benzyl-[1,2,4]oxadiazol-3-yl)-6-fluoro-7-imidazol-1-yl-1-(4-trifluoromethyl-benzyl)-1H-quinolin-4-one] | < 2 µM
25 | CC(=O)NCCCCC(c1ccccc1)c1nc(-c2cn(Cc3ccc(Cl)cc3)c3cc(N4CCN(C)CC4)c(F)cc3c2=O)no1 (stereo not shown) [Compound 85, N-(5-{3-[1-(4-chloro-benzyl)-6-fluoro-7-(4-methyl-piperazin-1-yl)-4-oxo-1,4-dihydro-quinolin-3-yl]-[1,2,4]oxadiazol-5-yl}-5-phenyl-pentyl)-acetamide] | < 2 µM
26 | CN1CCN(c2cc3c(cc2F)c(=O)c(-c2noc(C(CCCCNC(=O)OC(C)(C)C)c4ccccc4)n2)cn3Cc2ccc(Cl)cc2)CC1 (stereo not shown) [Compound 86, tert-butyl (5-{3-[1-(4-chloro-benzyl)-6-fluoro-7-(4-methyl-piperazin-1-yl)-4-oxo-1,4-dihydro-quinolin-3-yl]-[1,2,4]oxadiazol-5-yl}-5-phenyl-pentyl)-carbamate] | < 10 µM
27 | O=C1CN(c2cc3c(cc2F)c(=O)c(-c2noc(Cc4ccc(F)cc4)n2)cn3Cc2ccc(C(F)(F)F)cc2F)CCN1 [Compound 87, 6-fluoro-3-[5-(4-fluoro-benzyl)-[1,2,4]oxadiazol-3-yl]-1-(2-fluoro-4-trifluoromethyl-benzyl)-7-(3-oxo-piperazin-1-yl)-1H-quinolin-4-one] | < 0.5 µM
28 | CN1CCN(c2cc3c(cc2F)c(=O)c(-c2noc(C(CCCC#N)c4ccccc4)n2)cn3Cc2ccc(C(F)(F)F)cc2F)CC1 (stereo not shown) [Compound 88a, 5-{3-[6-fluoro-1-(2-fluoro-4-trifluoromethyl-benzyl)-7-(4-methyl-piperazin-1-yl)-4-oxo-1,4-dihydro-quinolin-3-yl]-[1,2,4]oxadiazol-5-yl}-5-phenyl-pentanenitrile] | < 0.5 µM
